Patent publication US6200963A, “Aryl sulfonic acids as FSH antagonists” (American Home Products Corporation, priority 2000, dated 2001)
Where a name gives a salt, the structure may show the parent alone. Read-outs that look alike come from different tables or passages of the source.

How the values were obtained:
[1] = target: T1, FSH receptor (Homo sapiens, UniProt P23945); experiment: FSH Receptor Radioligand Membrane Binding Assay ([125I]hFSH, CHO cell membranes); design: expressed in transfected cells; membrane homogenate; settings: for inhibition at 10 µM: read-out: % Inhibition at 10 μM conc.; for inhibition at 100 µM: read-out: % Inhibition at 100 μM conc.
T1 sequence (P23945 18-695): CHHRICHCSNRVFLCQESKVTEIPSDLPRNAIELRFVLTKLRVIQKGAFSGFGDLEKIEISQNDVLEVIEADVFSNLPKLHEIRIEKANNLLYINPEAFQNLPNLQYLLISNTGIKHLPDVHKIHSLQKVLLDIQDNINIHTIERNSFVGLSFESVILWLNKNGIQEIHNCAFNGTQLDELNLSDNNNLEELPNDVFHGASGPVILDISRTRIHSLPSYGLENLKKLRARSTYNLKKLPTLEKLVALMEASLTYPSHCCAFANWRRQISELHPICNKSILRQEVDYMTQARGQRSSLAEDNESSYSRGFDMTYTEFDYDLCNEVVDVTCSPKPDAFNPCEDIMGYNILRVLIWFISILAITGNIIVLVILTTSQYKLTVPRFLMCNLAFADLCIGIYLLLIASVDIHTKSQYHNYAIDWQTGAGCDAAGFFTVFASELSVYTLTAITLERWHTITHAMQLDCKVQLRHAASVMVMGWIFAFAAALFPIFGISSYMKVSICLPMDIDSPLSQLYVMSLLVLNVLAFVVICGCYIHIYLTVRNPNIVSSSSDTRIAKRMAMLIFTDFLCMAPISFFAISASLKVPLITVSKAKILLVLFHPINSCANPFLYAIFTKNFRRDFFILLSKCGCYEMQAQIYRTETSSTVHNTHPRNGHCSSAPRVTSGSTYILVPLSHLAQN
Method: FSH Receptor Radioligand Membrane Binding Assay
Membrane Source: Chinese hamster ovarian cells stably transfected with the human FSH receptor were cultured (Ultra CHO medium containing 1% fetal bovine serum and 200 μg/mL G418) in and harvested. Cells were collected by centrifugation and resulting cell pellets were frozen and stored at -70° C.
Membrane Receptor Preparation: Frozen cell pellets were weighed and resuspended in binding buffer to a final concentration of 30 mg wet weight/mL. Cell suspension for each pellet was homogenized using a Tempest homogenizer (setting=1; 5 strokes; VirTis, Gardiner, N.Y.). Cell homogenates were pooled and 35 mL aliquots were transferred to 50-mL polypropylene copolymer centrifuge tubes (Nalgene cat. #3110-0500). Tubes were spun at 12,000 rpm (SS34 rotor) for 12 min at 4° C. Resulting supernatant fractions were discarded and pellets were stored at -70° C. until use. On the day of the assay, 35 mL binding buffer was added to each tube (35 mL membrane suspension was sufficient for three 96-well plates). The membrane pellet was dispersed by trituration using a pipet. The resulting suspension was homogenized using a Tempest homogenizer (3 strokes at setting=1).
Receptor Binding Assay: Membrane homogenate (100 μl) was added to each well of a 96-well microtiter plate (Falcon # 3077). All reactions were tested in triplicate. Test compound solutions (50 μl) were added to the designated wells. Total bound counts were determined by adding 50 μl binding buffer containing 4% DMSO to the designated wells. […] Plates were pre-incubated for 15 min at room temperature on shaking platform (setting=3). After preincubation [^125 I]FSH (50 μl) was added to each well and plates were incubated for 2 h at room temperature on shaking platform (setting=3). The reaction was terminated by transfer of the membrane preparation to glass fiber filters (Blue Mat #11740; 102×256 mm; Skatron Instruments, Sterling, Va.) that had been pretreated with 1% BSA in wash buffer for at least 30 min, but not longer than 1 h using a 96-well microtiter vacuum harvester (Skatron Instruments). The membrane preparation was washed with 5 cycles of ice-cold wash buffer (200 μl/well/cycle) followed by a pulse wash of 3 cycles (100 μl/well/cycle). The total wash volume per well was 1.3 mL. The filters were dried by a 10 sec aspiration. Disks corresponding to each well of the microtiter plate were punched out of the filter mat into 12×75 mm polypropylene tubes. The radioactivity present on each of the disks was measured using a gamma counter.
An FSH dose response curve (0.001, 0.01, 0.1, 1, 10, and 100 nM) was generated for each binding assay to monitor assay to assay variability.
FSH Receptor Radioligand Membrane Binding Assay Buffers and Reagents
Binding Buffer (pH 7.2): 10 mM Trizma®-HCl (Sigma)
Binding buffer was prepared in 1 l volumes containing Trizma-HCl, MgCl2, CaCl2 and sodium azide, the pH was adjusted to 7.2 with NaOH, and stored at 4° C. until use. BSA was weighed out on the day of the assay and added to the amount of buffer required for the assay (usually 150 mL). The protease inhibitors were prepared as 1 mg/mL stocks (aprotinin, leupeptin, and phosphoramidon were prepared in binding buffer without BSA and protease inhibitors; pepstatin and PMSF were prepared in methanol), stored in 1 mL aliquots at -70° C., and added to the binding buffer on the day of the assay.
Wash Buffer (pH 7.2): 50 mM Trizma®-HCl (Sigma)
Wash buffer was prepared containing Trizma-HCl, MgCl2 and EDTA, the pH was adjusted to 7.2 with NaOH, and stored at 4° C.
Filter Soak Buffer (pH 7.2): Wash Buffer
BSA was weighed out on the day of the assay and added to 300 mL of wash buffer. The filter soak buffer was used for two assays before being discarded.
A portion of the stock solution was diluted in binding buffer to a concentration of 200 pM. […]

[2] = target: T2, FSH receptor (Rattus norvegicus, UniProt P20395); settings: literature, in words; cited from earlier work
T2 sequence (P20395 18-692): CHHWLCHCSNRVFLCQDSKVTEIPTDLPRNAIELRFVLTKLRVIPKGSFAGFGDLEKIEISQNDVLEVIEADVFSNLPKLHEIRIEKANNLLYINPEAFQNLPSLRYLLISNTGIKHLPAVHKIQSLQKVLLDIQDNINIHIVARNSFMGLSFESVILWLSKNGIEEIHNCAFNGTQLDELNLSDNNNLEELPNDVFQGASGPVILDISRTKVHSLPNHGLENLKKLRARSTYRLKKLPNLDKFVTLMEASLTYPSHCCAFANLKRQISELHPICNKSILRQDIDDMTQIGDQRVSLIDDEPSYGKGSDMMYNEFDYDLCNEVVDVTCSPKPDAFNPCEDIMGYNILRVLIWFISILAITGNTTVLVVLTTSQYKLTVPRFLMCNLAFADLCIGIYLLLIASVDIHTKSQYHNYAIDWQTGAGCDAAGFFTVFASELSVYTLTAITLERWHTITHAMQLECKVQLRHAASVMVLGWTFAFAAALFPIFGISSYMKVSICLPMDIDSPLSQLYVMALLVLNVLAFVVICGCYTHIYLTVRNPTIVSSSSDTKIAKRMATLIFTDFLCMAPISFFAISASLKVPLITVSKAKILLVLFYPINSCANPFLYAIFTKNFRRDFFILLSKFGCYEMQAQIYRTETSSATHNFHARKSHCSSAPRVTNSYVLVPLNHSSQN

[3] = test system: testosterone production; settings: humans administered suramin; in words; cited from earlier work
[4] = test system: testosterone production; settings: rats administered suramin; in words; cited from earlier work
[5] = target: T1, FSH receptor; experiment: In Vitro Bio-assay of Agonists and Antagonists to the FSH Receptor (cAMP accumulation in CHO-3D2 cells); format: cell-based; design: expressed in transfected cells; host or cells: CHO-3D2 cells
Method: Preparation of CHO-3D2 Cells; CHO-3D2 cells were plated into 96-well Nunc tissue culture plates at a density of 30,000 cells/well in DMEM/F12 medium (Gibco/BRL, Grand Island, N.Y.) supplemented with 5% Fetal Bovine Serum (Hyclone, Fetal Clone II), 2 mM L-glutamine and penicillin/streptomycin (100 U/mL).
The plate was split in half to test a single compound in both agonist and antagonist mode on the same plate.
For agonist mode, compounds were tested using 5 different concentrations in a dose-response paradigm using one column as a control (challenge medium alone) in agonist mode.
The 96-well format allowed for the capability to test 4 columns of compound, using one of the remaining columns for negative control (challenge medium alone) and the other remaining column for ampositive control (ED20 of FSH alone).
The doses chosen to test each compound were extrapolated from the initial screening process (receptor binding data).
Data were analyzed statistically by analysis of variance and significant differences between treatments and control determined by Dunnett's test. In antagonist mode, a Duncan's test was used.
Reference Compounds: Test compounds were compared to the effect of purified or recombinant human FSH.

[6] = target: T2, FSH receptor; experiment: In Vitro Bioassay of Agonists and Antagonists to the FSH Receptor using Primary Cultures of Rat Granulosa (estradiol secretion); format: cell-based; design: immature female Sprague-Dawley rats (Charles River Laboratories, Wilmington, Mass.) were used as donors for ovarian granulosa cells; endogenous in cells; host or cells: primary ovarian granulosa cells of immature female Sprague-Dawley rats; settings: antagonist mode; ED50 of FSH (0.5 ng/mL), rat granulosa cells, 72 h; read-out: IC50 (half-maximal inhibition of FSH-induced estradiol secretion)
Method: The concentration of vehicle was maintained constant throughout all dilutions.
Preparation of Granulosa Cells: Twenty-four day-old immature female Sprague-Dawley rats (Charles River Laboratories, Wilmington, Mass.) were used as donors for ovarian granulosa cells. The animals were treated by single daily injections of 100 mg/kg diethylstilbestrol (DES) in oil over three days. On the fourth day, animals were sacrificed by CO2 asphyxiation and the ovaries were removed. Ovaries were washed three times in 50 mL of sterile HEPES-buffered saline (HBS, pH 7.4). […] After the final spin, the cells were resuspended by gentle trituration in 25 mL serum-free medium, an aliquot counted in a hemocytometer and viability estimated by trypan blue exclusion. […]
Analysis of Results: Estradiol was expressed as pg/mL. […] Data were analyzed statistically by analysis of variance with Huber weighting of log transformed data. […]

[7] = 10 μM, [125I]hFSH binding, CHO membranes with human FSH receptor
[8] = 100 μM, [125I]hFSH binding, CHO membranes with human FSH receptor
[9] = antagonist mode, hFSH-induced cAMP accumulation (ED20 of FSH, […]), CHO-3D2 cells, 30 min

SMILES | IC50 [1] | inhibition at 10 µM [1, 7] | inhibition at 100 µM [1, 8] | other results
COc1ccc(N=Nc2c(S(=O)(=O)O)cc3cc(NC(=O)c4cc(OC)cc(OC)c4)ccc3c2O)cc1 [Example 14, 7-(3,5-Dimethoxy-benzoylamino)-4-hydroxy-3-(4-methoxy-phenylazo)-napthalene-2-sulfonic Acid] | 81 µM | 14% | 60% | 
COc1ccc(N=Nc2c(S(=O)(=O)O)cc3cc(NC(=O)c4ccc(N(C)C)cc4)ccc3c2O)cc1 [Example 12, 7-(4-Dimethylamino-benzoylamino)-4-hydroxy-3-(4-methoxy-phenylazo)-napthalene-2-sulfonic Acid, Sodium Salt] | 101 µM |  |  | 
Cc1ccc(C(=O)Nc2ccc(S(=O)(=O)O)c3cc(S(=O)(=O)O)cc(S(=O)(=O)O)c23)cc1NC(=O)c1cccc(NC(=O)Nc2cccc(C(=O)Nc3cc(C(=O)Nc4ccc(S(=O)(=O)O)c5cc(S(=O)(=O)O)cc(S(=O)(=O)O)c45)ccc3C)c2)c1 [suramin] |  |  |  | inhibition of FSH binding to its receptor [2]: inhibit FSH binding to its receptor; testosterone production [3]: decrease in testosterone production; testosterone production [4]: decrease in testosterone production
COc1ccc(N=Nc2c(S(=O)(=O)O)cc3cc(Nc4nc(Cl)nc(N(CCC(N)=O)CCC(N)=O)n4)ccc3c2O)cc1 [Example 9, 7-{4-[Bis-(2-carbamoyl-ethyl)-amino]-6-chloro-[1,3,5]-triazin-2-ylamino)-4-hydroxy-3-(4-methoxy-phenylazo)-napthalene-2-sulfonic Acid, Sodium Salt] |  | 74% | 94% | IC50 [5, 9]: 1.4 µM; IC50 [6]: 1.9 µM; % Inhibition at 10 μM conc. ([1]; 10 μM, [125I]hFSH binding, CHO membranes with human FSH receptor, Sodium Salt): 66%; % Inhibition at 100 μM conc. ([1]; 100 μM, [125I]hFSH binding, CHO membranes with human FSH receptor, Sodium Salt): 98%; IC50 ([1]; [125I]hFSH binding, CHO membranes with human FSH receptor, Sodium Salt): 5 µM; IC50 ([1]; [125I]hFSH binding, CHO membranes with human FSH receptor, listed as 3, Sodium Salt): 6 µM
COc1ccc(N=Nc2c(S(=O)(=O)O)cc3cc(NC(=O)c4c(OC)cccc4OC)ccc3c2O)cc1 [Example 18, 7-(2,6-Dimethoxy-benzoylamino)-4-hydroxy-3-(4-methoxy-phenylazo)-napthalene-2-sulfonic Acid] |  | 10% | 8% | 
COc1ccc(N=Nc2c(S(=O)(=O)O)cc3cc(NC(=O)c4ccccc4)ccc3c2O)cc1 [Example 16, 7-Benzoylamino-4-hydroxy-3-(4-methoxy-phenylazo)-napthalene-2-sulfonic Acid] | 79 µM | 11% | 76% | 
COc1ccc(N=Nc2c(S(=O)(=O)O)cc3cc(Nc4nc(Cl)nc(N(CCO)CCO)n4)ccc3c2O)cc1 [Example 11, 7-{4-[Bis-(2-hydroxy-ethyl)-amino]-6-chloro-[1,3,5]-triazin-2-ylamino)-4-hydroxy-3-(4-methoxy-phenylazo)-napthalene-2-sulfonic Acid, Sodium Salt] |  | 29% | 71% | IC50 [5, 9]: 10 µM; IC50 ([1]; [125I]hFSH binding, CHO membranes with human FSH receptor): 8.6 µM
COc1ccc(N=Nc2c(S(=O)(=O)O)cc3cc(NC(=O)c4ccc(OC)c(OC)c4)ccc3c2O)cc1 [Example 19, 7-(3,4-Dimethoxy-benzoylamino)-4-hydroxy-3-(4-methoxy-phenylazo)-napthalene-2-sulfonic Acid] | 14 µM | 19% | 100% | IC50 [5]: 16 µM
